Measurements reported in the NIST ThermoML archive (doi:10.1016/j.tca.2016.10.016).
“And” between values parts separate entries of the source, which are not always exact repeats. Identical values can stand only once. ± gives the expanded uncertainty stated by the source.

Key:
[1] = Molar enthalpy of transition or fusion; conditions: Crystal; DSC
[2] = Crystal; DTA

O.O.O=C(O)C(=O)O [ethanedioic acid dihydrate]
Molar enthalpy of transition or fusion [1]: 11.3 kcal/mol and 11.2 kcal/mol
Normal melting temperature [2]: 99.60 ± 0.7 °C and 101.20 ± 0.7 °C
